Source: PubChem BioAssay AID330 (DTP/NCI, 2004)
Where “and” joins values, the source holds several entries; their conditions need not be identical. Equal entries are not always repeated. Toxic doses and inconclusive results are not listed. The calls were made as follows: active = survival T/C of 150% or more; inactive = T/C below 125% in these data.

System: P388 leukemia ip, CD2F1 mice, survival T/C
Assay: NCI In Vivo Anticancer Drug Screen. Data for tumor model P388 Leukemia (intraperitoneal) in CD2F1 (CDF1) mice
Settings: endpoint: median survival time, higher = longer survival
Summary of the method: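 Mice carrying the transplanted tumor received test compound or vehicle. Survival was recorded in each group, and the value is the treated-group measurement divided by that of the vehicle-treated control group.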

[1] = dose: 60.0 mg/kg/injection, schedule: Q01DX005 (ip), vehicle: Klucel (hydroxypropylcellulose) (HPC)
[2] = dose: 50.0 mg/kg/injection, schedule: Q01DX005 (ip), vehicle: Klucel (hydroxypropylcellulose) (HPC)
[3] = dose: 100.0 mg/kg/injection, schedule: Q01DX005 (ip), vehicle: Klucel (hydroxypropylcellulose) (HPC)
[4] = dose: 200.0 mg/kg/injection, schedule: Q01DX005 (ip), vehicle: Klucel (hydroxypropylcellulose) (HPC)
[5] = dose: 15.0 mg/kg/injection, schedule: Q01DX005 (ip), vehicle: saline with Tween-80
[6] = dose: 30.0 mg/kg/injection, schedule: Q01DX005 (ip), vehicle: saline with Tween-80
[7] = dose: 60.0 mg/kg/injection, schedule: Q01DX005 (ip), vehicle: saline with Tween-80

Measured: T/C

Cc1ccc(NCN2C(=O)c3ccccc3C2=O)c(C)n1
inactive: [1] 92 % of control | dose: 120.0 mg/kg/injection, schedule: Q01DX005 (ip), vehicle: Klucel (hydroxypropylcellulose) (HPC) 89 % of control

CC(=O)C1CCC2C3CC4OCC5(CCC(O)CC45Br)C3CCC12C (stereo unspecified)
inactive: [2] 104 % of control | [3] 98 % of control | [4] 101 % of control

Cc1cccc(C)c1NC(=O)/C(Cl)=C1/Sc2ccccc2NC1=O
inactive: dose: 50.0 mg/kg/injection, schedule: Q01DX005 (ip), vehicle: saline with Tween-80 105 % of control | dose: 100.0 mg/kg/injection, schedule: Q01DX005 (ip), vehicle: saline with Tween-80 97 % of control | dose: 200.0 mg/kg/injection, schedule: Q01DX005 (ip), vehicle: saline with Tween-80 88 % of control

CCOC(=O)c1c[nH]c2ccc3[nH]cnc3c2c1=O
inactive: [2] 95 % of control | [3] 99 % of control | [4] 95 % of control

CC(C)C1CS1=O (stereo unspecified)
inactive: dose: 60.0 mg/kg/injection, schedule: Q01DX005 (ip), vehicle: saline 97 % of control | dose: 120.0 mg/kg/injection, schedule: Q01DX005 (ip), vehicle: saline 97 % of control | dose: 240.0 mg/kg/injection, schedule: Q01DX005 (ip), vehicle: saline 109 % of control

CC(C)(C)c1cc(C(C)(C)C)c2[n+]([O-])ssc1-2
inactive: [5] 120 % of control | [6] 108 % of control | [7] 113 % of control and 95 % of control | dose: 120.0 mg/kg/injection, schedule: Q01DX005 (ip), vehicle: saline with Tween-80 97 % of control

COc1cccc2c1C(=O)c1c(O)c3c(c(O)c1C2=O)CC(O)(C(C)=O)CC3OC1CC([N+](C)(C)C)C(O)C(C)O1 (stereo unspecified)
inactive: dose: 1.56 mg/kg/injection, schedule: Q01DX009 (ip), vehicle: water 101 % of control | dose: 3.12 mg/kg/injection, schedule: Q01DX009 (ip), vehicle: water 90 % of control | dose: 3.13 mg/kg/injection, schedule: Q01DX009 (ip), vehicle: water 113 % of control | dose: 6.25 mg/kg/injection, schedule: Q01DX009 (ip), vehicle: water 118 % of control | dose: 12.5 mg/kg/injection, schedule: Q01DX009 (ip), vehicle: water 110 % of control and 112 % of control | dose: 25.0 mg/kg/injection, schedule: Q01DX009 (ip), vehicle: water 111 % of control and 120 % of control

O=c1c2ccccc2n2nc3ccccc3c2n1-c1ccccc1
inactive: dose: 93.25 mg/kg/injection, schedule: Q04DX002 (ip), vehicle: Klucel (hydroxypropylcellulose) (HPC) 104 % of control | dose: 186.5 mg/kg/injection, schedule: Q04DX002 (ip), vehicle: Klucel (hydroxypropylcellulose) (HPC) 98 % of control | dose: 373.0 mg/kg/injection, schedule: Q04DX002 (ip), vehicle: Klucel (hydroxypropylcellulose) (HPC) 95 % of control

Cc1cn(Cc2ccc(Cl)cc2Cl)c(C)n1
inactive: [5] 100 % of control | [6] 107 % of control | [7] 100 % of control and 108 % of control

COc1cc(/C=C/C(C)=N/NC(N)=S)cc(OC)c1OC
inactive: dose: 3.75 mg/kg/injection, schedule: Q01DX005 (ip), vehicle: Klucel (hydroxypropylcellulose) (HPC) 102 % of control | dose: 7.5 mg/kg/injection, schedule: Q01DX005 (ip), vehicle: Klucel (hydroxypropylcellulose) (HPC) 105 % of control | dose: 15.0 mg/kg/injection, schedule: Q01DX005 (ip), vehicle: Klucel (hydroxypropylcellulose) (HPC) 99 % of control | dose: 30.0 mg/kg/injection, schedule: Q01DX005 (ip), vehicle: Klucel (hydroxypropylcellulose) (HPC) 90 % of control and 94 % of control

O=C(OC(c1ccccc1)c1ccccc1)c1ccccc1
inactive: dose: 50.0 mg/kg/injection, schedule: Q01DX009 (ip), vehicle: saline 99 % of control | dose: 100.0 mg/kg/injection, schedule: Q01DX009 (ip), vehicle: saline 108 % of control | dose: 200.0 mg/kg/injection, schedule: Q01DX009 (ip), vehicle: saline 102 % of control

O=CC1=CSC(=C2SC=CS2)S1
inactive: dose: 15.0 mg/kg/injection, schedule: Q01DX005 (ip), vehicle: Klucel + Tween-80 95 % of control | dose: 30.0 mg/kg/injection, schedule: Q01DX005 (ip), vehicle: Klucel + Tween-80 87 % of control | [1] 101 % of control | dose: 60.0 mg/kg/injection, schedule: Q01DX005 (ip), vehicle: Klucel + Tween-80 106 % of control
